Columns and labels:
MDA-MB-468 = assay: NCI one-dose assay; type: cell-based; conditions: Homo sapiens, MDA-MB-468, Breast cancer, read-out: Cell growth inhibition %
OVCAR-4 = assay: NCI one-dose assay; type: cell-based; conditions: Homo sapiens, OVCAR-4, Ovarian cancer, read-out: Cell growth inhibition %
SK-MEL-28 = assay: NCI one-dose assay; type: cell-based; conditions: Homo sapiens, SK-MEL-28, Melanoma, read-out: Cell growth inhibition %
NCI-H226 = assay: NCI one-dose assay; type: cell-based; conditions: Homo sapiens, NCI-H226, Non-small cell lung cancer, read-out: Cell growth inhibition %
NCI-H522 = assay: NCI one-dose assay; type: cell-based; conditions: Homo sapiens, NCI-H522, Non-small cell lung cancer, read-out: Cell growth inhibition %
DU-145 = assay: NCI one-dose assay; type: cell-based; conditions: Homo sapiens, DU-145, Prostate cancer, read-out: Cell growth inhibition %
BT-549 = assay: NCI one-dose assay; type: cell-based; conditions: Homo sapiens, BT-549, Breast cancer, read-out: Cell growth inhibition %
SNB-19 = assay: NCI one-dose assay; type: cell-based; conditions: Homo sapiens, SNB-19, CNS cancer, read-out: Cell growth inhibition %
ACHN = assay: NCI one-dose assay; type: cell-based; conditions: Homo sapiens, Renal cancer, read-out: Cell growth inhibition %
NCI-H460 = assay: NCI one-dose assay; type: cell-based; conditions: Homo sapiens, NCI-H460, Non-small cell lung cancer, read-out: Cell growth inhibition %
OVCAR-5 = assay: NCI one-dose assay; type: cell-based; conditions: Homo sapiens, OVCAR-5, Ovarian cancer, read-out: Cell growth inhibition %
NCI/ADR-RES = assay: NCI one-dose assay; type: cell-based; conditions: Homo sapiens, Ovarian cancer, read-out: Cell growth inhibition %
SN12C = assay: NCI one-dose assay; type: cell-based; conditions: Homo sapiens, Renal cancer, read-out: Cell growth inhibition %
NCI-H23 = assay: NCI one-dose assay; type: cell-based; conditions: Homo sapiens, NCI-H23, Non-small cell lung cancer, read-out: Cell growth inhibition %
TK-10 = assay: NCI one-dose assay; type: cell-based; conditions: Homo sapiens, TK-10, Renal cancer, read-out: Cell growth inhibition %
PC-3 = assay: NCI one-dose assay; type: cell-based; conditions: Homo sapiens, PC-3, Prostate cancer, read-out: Cell growth inhibition %
SK-OV-3 = assay: NCI one-dose assay; type: cell-based; conditions: Homo sapiens, SK-OV-3, Ovarian cancer, read-out: Cell growth inhibition %
MCF7 = assay: NCI one-dose assay; type: cell-based; conditions: Homo sapiens, MCF7, Breast cancer, read-out: Cell growth inhibition %
IGROV1 = assay: NCI one-dose assay; type: cell-based; conditions: Homo sapiens, IGROV-1, IGROV1, Ovarian cancer, read-out: Cell growth inhibition %
LOX IMVI = assay: NCI one-dose assay; type: cell-based; conditions: Homo sapiens, Melanoma, read-out: Cell growth inhibition %
MALME-3M = assay: NCI one-dose assay; type: cell-based; conditions: Homo sapiens, Melanoma, read-out: Cell growth inhibition %
SR = assay: NCI one-dose assay; type: cell-based; conditions: Homo sapiens, Leukemia, read-out: Cell growth inhibition %
A498 = assay: NCI one-dose assay; type: cell-based, human; conditions: Homo sapiens, A498, A498, Renal cancer, read-out: Cell growth inhibition %
RXF 393 = assay: NCI one-dose assay; type: cell-based; conditions: Homo sapiens, RXF 393, Renal cancer, read-out: Cell growth inhibition %
NCI 60 cell lines = assay: NCI one-dose assay, full panel; type: cell-based, human
Description: The National Cancer Institute (NCI), Bethesda, USA, selected the final compounds 6a–j and 7a–j for in vitro anticancer screening. An initial in vitro single-dose anticancer experiment was performed with the entire NCI 60 cell lines derived from nine tumor subpanel cancer cell lines. The results for each compound were illustrated as a mean graph showing the percentage growth of treated cells compared to untreated control cells (see Supplementary Materials).
The NCI anticancer screening process has been thoroughly detailed. The Drug Evaluation Branch of the National Cancer Institute in Bethesda, […], USA, established the procedure and conducted the anticancer assay on 60 human tumor cell lines from nine neoplastic cancers.

SMILES | inhibition at 10 µM (MDA-MB-468) | inhibition at 10 µM (OVCAR-4) | inhibition at 10 µM (SK-MEL-28) | inhibition at 10 µM (NCI-H226) | inhibition at 10 µM (NCI-H522) | inhibition at 10 µM (DU-145) | inhibition at 10 µM (BT-549) | inhibition at 10 µM (SNB-19) | inhibition at 10 µM (ACHN) | inhibition at 10 µM (NCI-H460) | inhibition at 10 µM (OVCAR-5) | inhibition at 10 µM (NCI/ADR-RES) | inhibition at 10 µM (SN12C) | inhibition at 10 µM (NCI-H23) | inhibition at 10 µM (TK-10) | inhibition at 10 µM (PC-3) | inhibition at 10 µM (SK-OV-3) | inhibition at 10 µM (MCF7) | inhibition at 10 µM (IGROV1) | inhibition at 10 µM (MALME-3M) | further results
O=C(CSc1nnc(-c2c[nH]c3ccccc23)n1-c1ccccc1)c1ccccc1 [Compound 6f, 2-((5-(1H-indol-3-yl)-4-phenyl-4H-1,2,4-triazol-3-yl)thio)-1-phenylethanone] | 22.8% | 102% | 0.04% | 95.5% | 28.4% | 14.3% | 37.8% | 80.8% | 39.5% | 38.2% | 11.4% | 85.2% | 55.3% | 55.1% | 28% | 34.2% | 14.4% | 63.8% | 44.9% | 62.6% | inhibition at 10 µM (LOX IMVI): 70.8%; inhibition at 10 µM (SR): 18.4%; inhibition at 10 µM (A498): -6.16%
COc1ccc(C(=O)CSc2nnc(-c3c[nH]c4ccccc34)n2-c2ccccc2)cc1 [Compound 6g, 2-((5-(1H-Indol-3-yl)-4-phenyl-4H-1,2,4-triazol-3-yl)thio)-1-(4-methoxyphenyl) Ethenone] | 40.2% | 99.4% | 50.3% | 99.9% | 54.3% | 31.1% | 75.3% | 70.2% | 77.2% | 34.5% | 22.6% | 100% | 55.6% | 43.5% | 36.1% | 49.7% | 33.7% | 54.4% | 39.5% | 116% | inhibition at 10 µM (LOX IMVI): 56.5%; inhibition at 10 µM (SR): 20.3%; inhibition at 10 µM (A498): -11.3%
O=C(CSc1nnc(-c2c[nH]c3ccccc23)n1-c1ccccc1)c1ccc(Cl)cc1 [Compound 6j, 2-((5-(1H-indol-3-yl)-4-phenyl-4H-1,2,4-triazol-3-yl)thio)-1-(4-chlorophenyl) Ethenone] | 53.6% | 85.1% | 31.7% | 82.4% | 33% | 11.6% | 30.2% | 60% | 42.5% | 39.9% | 9.28% | 94.2% | 35.4% | 59.2% | 16% | 39.5% | 27.9% | 61.6% | 48.6% | 36% | inhibition at 10 µM (LOX IMVI): 84.1%; inhibition at 10 µM (SR): 7.63%; inhibition at 10 µM (A498): 42.7%
O=C(CSc1nnc(-c2c[nH]c3ccccc23)n1-c1ccccc1)c1ccc(Br)cc1 [Compound 6i, 2-((5-(1H-Indol-3-yl)-4-phenyl-4H-1,2,4-triazol-3-yl)thio)-1-(4-bromophenyl) Ethenone] | 78% | 53.8% | 65.1% | 60.9% | 53.7% | 41.5% | 34.8% | 29.8% | 62.6% | 65.5% | 41.7% | 100% | 27.1% | 46% | 35.1% | 53.8% | 51.4% | 46.6% | 35.9% | 29% | inhibition at 10 µM (LOX IMVI): 58.2%; inhibition at 10 µM (SR): 9.15%; inhibition at 10 µM (A498): 64%
C=CCn1c(SC/C(=N\O)c2ccc(Cl)cc2)nnc1-c1c[nH]c2ccccc12 [Compound 7e, (Z)-2-((4-allyl-5-(1H-indol-3-yl)-4H-1,2,4-triazol-3-yl)thio)-1-(4-chlorophenyl) Ethanone Oxime] | 43.1% | 19.9% | 0.08% | 30.4% | 19.5% | 5.88% | 14.4% | 12.6% | 10.2% | 24.7% | -2.62% | 3.86% | 14.9% | 17.4% | 1.28% | 24.4% | 3.52% | 13.3% | 29.7% | 15.6% | inhibition at 10 µM (RXF 393): 5.62%; inhibition at 10 µM (SR): 12.1%; inhibition at 10 µM (NCI 60 cell lines; Homo sapiens, HL-60(TB), K-562, MOLT-4, HCT-116, UACC-62, UO-31, T-47D, MDA-MB-468, read-out: growth inhibition percentage, range): 35 to 46.5%
C=CCn1c(SCC(=NO)c2ccc(OC)cc2)nnc1-c1c[nH]c2ccccc12 [Compound 7b, 2-((4-allyl-5-(1H-indol-3-yl)-4H-1,2,4-triazol-3-yl)thio)-1-(4-methoxyphenyl) Ethanone Oxime] | 16.3% | -1.81% | -3.89% | 14.9% | 8.33% | -5.85% | -3.8% | 1.65% | 7.56% | 5.34% | -4.1% | -3.18% | 8.24% | 4.86% | -27.2% | 14.9% | 1.86% | 11.3% | 17.6% | 3.2% | inhibition at 10 µM (RXF 393): -12.1%; inhibition at 10 µM (SR): 3.76%; anticancer activity (in words) (NCI 60 cell lines; across all cell lines, 10 µM): minimal anticancer activity
O/N=C(\CSc1nnc(-c2c[nH]c3ccccc23)n1-c1ccccc1)c1ccccc1 [Compound 7f, (Z)-2-((5-(1H-Indol-3-yl)-4-phenyl-4H-1,2,4-triazol-3-yl)thio)-1-phenylethanone Oxime] | 64.6% | 62.2% | 45.5% | 56.7% | 46.2% | 40.2% | 42.5% | 48.5% | 58.4% | 66% | 14.3% | 44.7% | 42.6% | 45.8% | 34% | 75.9% | 30.6% | 58.9% | 41.8% | 23.9% | inhibition at 10 µM (LOX IMVI): 59%; inhibition at 10 µM (SR): 43.8%; inhibition at 10 µM (A498): 14.8%

From paper PMC11859928, “Design, Synthesis, and Antiproliferative Activity of Novel Indole/1,2,4-Triazole Hybrids as Tubulin Polymerization Inhibitors” (Pharmaceuticals, 2025)
